Consider four compounds from patent US20130263298A1, “MODELS FOR DIAGNOSIS, PREVENTION AND TREATMENT OF ALZHEIMER'S DISEASE” (INDIGO CAPITAL GROUP LLC, priority 2012, published 2013).

One experiment relates to Drosophila melanogaster. Description: Phase-I lifespan of yellow-white Drosophila fed dietary supplements. Format: in vivo. Conditions: male yellow-white Drosophila, supplement at optimal RDA in diet; for increase in mean survival / longevity: vs. control (36 days). How it is done: For the phase-I of the study, approximately 1200 male yellow-white Drosophila were bred, isolated and monitored on a daily basis. About 100 fruit flies were tested for each supplement, divided into four vials containing 25 flies each.
In an embodiment of the present invention, a mathematical formula was developed by the inventor for an optimal dosage: Recommended daily human dosage of each supplement per day, divided by 1,000,000 (average weight of a person 50 kg, average weight of 100 flies […]), multiplied by 2 as tubes are used initially for two days, multiplied by 100 as it is assumed only 1% of the food is consumed, multiplied by 4 as bulk food was made for 1 week/8 days. According to the formula, if 100 mg is the recommended human daily dosage of a supplement, the fly dose is 0.08 mg. This was considered optimal required daily allowance (RDA). The supplements were measured on the milligram gemological weighing machine and combined with the regular Drosophila diet (Carolina 424 media, yeast, water) in a temperature controlled insect culture incubator under optimal conditions. 50% survival was calculated by counting the flies that died and transferring the live flies into a different vial with newly made media every two days and near the end, every day. The observations were recorded, calculated, graphed and analysed. Two tailed t-tests were performed to test for statistical significance.

The subject of the next experiment is GCLc enzyme. Description: Western Blot test for GCLc enzyme levels in supplement-fed flies. Format: in vivo, Drosophila melanogaster. Conditions: optimal dose (3x), 15 days feeding, compared to the control. How it is done:
For the phase-III of the experiment, a new set of Drosophila melanogaster were bred for Western blot and Glutathione assays. […] Single, triple, and six times strength for each of the three supplements were added to 25 flies each in vials along with control for 15 days. The flies were then transferred to perform the Western Blot test to check for GCLc enzyme levels for each group. […] Details of the procedure for Western Blot are mentioned below. A western blot is a method that allows investigators to detect a specific protein in a given sample of tissue. The flies were frozen with dry ice, then standardized, lysis buffer added, homogenized and then centrifuged. The proteins were separated by their molecular weight ([…]) by SDS-PAGE, polyacrylamide gel electrophoresis. An 8% acryl amide gel was used. Smaller proteins migrate faster. Samples were loaded into the wells and a voltage of 150 Volts was applied. The proteins were transferred to a PVDF sheet of special blotting paper. The uniformity was checked by the Coomassie stain. […] A digital image of the western blot was captured using fluorescence and analysed.

The subject of the next experiment is Glutathione. The experiment in a line: Fluorometric Glutathione Assay (monochlorobimane) in supplement-fed flies. It is filed as in vivo, Drosophila melanogaster. Conditions: optimal dose (3x), 15 days feeding, compared to the control. The protocol: For the phase-III of the experiment, a new set of Drosophila melanogaster were bred for Western blot and Glutathione assays. […] Single, triple, and six times strength for each of the three supplements were added to 25 flies each in vials along with control for 15 days. The flies were then transferred to perform the Western Blot test to check for GCLc enzyme levels for each group. […] Glutathione Detection Kit from BioVision's ApoGSH was used for an in vitro assay for detection of total glutathione changes in tissue samples. The assay used monochlorobimane (MCB), a dye that appears to form an adduct exclusively with glutathione. […] The reaction was catalysed by glutathione S-transferase. Thus, the amount of total glutathione was detected using a fluorimeter. In an embodiments of the present invention, the kit contents included Cell Lysis Buffer—25 ml, Monochlorobimane (25 mM)—200 μl, GST Reagent (50 U/ml)-200 μl, and GSH Standard (1 mg; MW: 307)—1 Vial. Monochlorobimane was dissolved in DMSO and warmed at a temperature above 18° C. for use. After opening the kit, MCB, GST, and GSH were stored at −20° C. and Cell Lysis Buffer was stored at 4° C. The GSH standard was reconstituted with 100 μl dH2O to generate 10 μg/μl standard stock solution. […] Reading: […] The sample readings were applied to the standard curve to calculate total glutathione amount in each sample. […]

The structures appear in SMILES notation.

On to `COC1=C(OC)C(=O)C(C/C=C(\C)CC/C=C(\C)CC/C=C(\C)CC/C=C(\C)CC/C=C(\C)CC/C=C(\C)CC/C=C(\C)CC/C=C(\C)CC/C=C(\C)CCC=C(C)C)=C(C)C1=O` [Coenzyme Q10], for which the “increase in mean survival / longevity” value in the experiment on Drosophila melanogaster is listed as 11%.
Regarding `N[C@@H](CCC(=O)N[C@@H](CS)C(=O)NCC(=O)O)C(=O)O` [Glutathione], the “increase in GCLc enzyme” value in the experiment with GCLc enzyme is 7%. Also, in the experiment on Drosophila melanogaster, the “increase in mean survival / longevity” value is reported as 11%. In the experiment with Glutathione, this compound showed an increase in glutathione of 154%.
For the compound `CC(=O)N[C@@H](CS)C(=O)O` [NAC, N acetyl cysteine], the “increase in mean survival / longevity” value with Drosophila melanogaster was 28%.
`Oc1ccc(C=Cc2cc(O)cc(O)c2)cc1` [Resveratrol]: in the experiment on GCLc enzyme, the “increase in GCLc enzyme” value amounted to 1%. Besides, the “increase in mean survival / longevity” value in the experiment with Drosophila melanogaster was found to be 39%. The compound also displayed a mean survival in the experiment with Drosophila melanogaster (control 36 days) of 50 days. Also, the increase in glutathione with Glutathione is 100%.
